Measured values as given in patent publication US20060104978A1, “Methods and compositions for PDGF-C activation and inhibition” (LUDWIG INSTITUTE FOR CANCER RESEARCH, priority 2003, published 2006).

Legend:
[1] = test system: wild-type and tPA-deficient fibroblasts; test: BrdU incorporation in primary fibroblasts; assay type: cell-based, mouse; conditions: 50 ng/ml, 24 hours BrdU labeling
Procedure: Cell nuclei were visualized with 4′,6-diamidine-2′-phenylindole dihydrochloride (DAPI), and BrdU-labeled cells were determined by immunofluorescence using antibodies to BrdU (FIG. 7B).
To monitor cell growth, both the cell proliferation reagent WST-1 (Roche) and BrdU (Sigma) were used. A total of 0.4×10^4 (WST-1) or 1×10^4 (BrdU) wild-type and tPA-deficient fibroblasts were seeded in triplicate-hexaplicate, and after attachment they were serum-starved overnight. Serum-starved cells were counted (WST-1 seeding control) and alternatively incubated for 24 hours in serum-free medium supplemented with 1 mg/ml BSA, and 50 μM BrdU in the BrdU experiment, in the absence or presence of 50 ng/ml activated PDGF-CC or tPA protein (#116, American Diagnostica Inc.). Upon counting, WST-1 reagent was added and measured according to the manufacturer's protocol using an ELISA reader. In the BrdU experiment, the cells were fixed in 4% paraformaldehyde in PBS for 30 min at room temperature and the DNA was denatured in 2M HCl for 20 min at room temperature and then blocked in 0.5% BSA, 0.5% Tween, and 10% goat serum in PBS. […] Quantification of the BrdU-positive cells was performed by counting all cells along the vertical and horizontal diameters of all wells.

[2] = biological target: latent PDGF-CC (Homo sapiens, UniProt Q9NRA1); test: In vitro cleavage of recombinant latent PDGF-CC with purified tPA; assay type: biochemical; set-up: His6-tagged recombinant full-length PDGF-CC; made in house; host or cells: Sf9 insect cells, baculovirus; conditions: 0.2-20 μg/ml tPA, 4 hours at 37° C., CNBr activated fibrinogen
latent PDGF-CC, sequence (Q9NRA1 23-345): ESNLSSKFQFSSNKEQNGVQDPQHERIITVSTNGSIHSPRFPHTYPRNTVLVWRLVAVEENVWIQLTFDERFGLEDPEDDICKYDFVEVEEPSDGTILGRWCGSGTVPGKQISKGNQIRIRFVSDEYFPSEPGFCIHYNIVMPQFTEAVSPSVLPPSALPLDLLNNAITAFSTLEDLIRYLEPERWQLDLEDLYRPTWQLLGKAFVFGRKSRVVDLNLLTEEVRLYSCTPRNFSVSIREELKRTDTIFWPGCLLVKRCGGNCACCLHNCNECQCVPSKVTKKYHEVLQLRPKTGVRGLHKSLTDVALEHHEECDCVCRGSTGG
Excerpt: A cotransfection assay was established to identify serine proteases able to cleave and activate latent PDGF-CC. Expression plasmids encoding the relevant enzymes and full-length PDGF-C were cotransfected into COS-1 cells, and aliquots of the conditioned media from the transfectants were subjected to SDS-PAGE and immunoblotting using antibodies to the growth factor domain of PDGF-C. […] As a specificity control, the ability of tPA and NT to use full-length PDGF-DD as the substrate in the cotransfection assay was analysed. […] One difference in the latter results, as compared with the results from the cotransfection assay, was that purified tPA generated a second intermediate species of 32 kDa using latent PDGF-CC as the substrate. It is possible that this intermediate is the result of digestion by plasmin contamination in the tPA preparation, since the size of the fragment is similar to that of plasmincleaved PDGF-CC previously reported (Li et al, 2000).
Recombinant latent PDGF-CC and PDGF-DD were digested with human tPA in 100 mM Tris-HCl pH 7.5, 0.1% Tween 20, and 0.1 mg/ml CNBr activated fibrinogen (Sigma) for 4 hours at 37° C. using 0.2-20 μg/ml tPA purified from human melanoma cells (T7776, Sigma). The digestions were analyzed by SDS-PAGE under reducing conditions and immunoblotted using affinity-purified antibodies against PDGF-C and PDGF-D, respectively (see above).

tPA: tissue plasminogen activator, secreted serine protease; expressed, purified from human melanoma cells or recombinant
BrdU incorporation in tPA-deficient cells ([1]; serum-starved tPA-deficient fibroblasts): strongly stimulated BrdU incorporation in the tPA-deficient cells | BrdU incorporation in wild-type cells ([1]; serum-starved wild-type fibroblasts): had less effect on wild-type cells | cleavage of recombinant latent PDGF-CC by purified tPA [2]: PDGF-CC, but not PDGF-DD, is a substrate for tPA
